Data as given in ChEMBL document CHEMBL1152043, “Interphenylene phenyl oxazoles: novel, potent thromboxane receptor antagonists” (Bioorg Med Chem Lett, 1992).

Legend:
Homo sapiens [1] = organism: Homo sapiens; experiment: Tested for inhibition of platelet aggregation induced by U-46,619 (U-IPA) in human platelet rich plasma; type: functional; conditions: read-out: I50
Homo sapiens [2] = organism: Homo sapiens; experiment: Tested for inhibition of platelet aggregation induced by arachidonic acid (AAIPA) in human platelet rich plasma; type: functional; conditions: read-out: I50
Thromboxane A2 receptor = molecular target: T1, Thromboxane A2 receptor (Homo sapiens, UniProt P21731); experiment: Dissociation constant was determined from radioligand binding studies in human platelet membranes using Thromboxane A2 receptor radioligand [3H]-SQ 29,548.; type: cell membranes
T1 sequence (P21731 whole entry): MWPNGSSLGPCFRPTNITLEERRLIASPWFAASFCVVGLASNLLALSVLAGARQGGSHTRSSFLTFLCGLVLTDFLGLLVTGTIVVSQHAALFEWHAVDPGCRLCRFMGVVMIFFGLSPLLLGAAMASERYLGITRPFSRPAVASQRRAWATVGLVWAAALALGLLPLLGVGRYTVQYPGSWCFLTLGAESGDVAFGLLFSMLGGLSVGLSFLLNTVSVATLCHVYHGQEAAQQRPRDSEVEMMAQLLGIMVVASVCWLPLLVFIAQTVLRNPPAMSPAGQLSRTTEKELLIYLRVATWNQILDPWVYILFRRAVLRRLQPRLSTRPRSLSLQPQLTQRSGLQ

SMILES | IC50 (Homo sapiens [1]) | IC50 (Homo sapiens [2]) | Kd (Thromboxane A2 receptor)
O=C(O)CCc1ccccc1Cc1ccccc1-c1nc(C(=O)NCCCCC2CCCCC2)co1 | 110 nM | 31 nM | 19 nM
O=C(O)Cc1ccccc1Cc1ccccc1-c1nc(C(=O)NCCCCC2CCCCC2)co1 | 330000 nM | 67000 nM | –
O=C(O)CCCc1ccccc1Cc1ccccc1-c1nc(C(=O)NCCCCC2CCCCC2)co1 | 630 nM | 58 nM | –
O=C(O)Cc1cccc(Cc2ccccc2-c2nc(C(=O)NCCCCC3CCCCC3)co2)c1 | 6000 nM | 2000 nM | –
O=C(O)CCc1cccc(Cc2ccccc2-c2nc(C(=O)NCCCCC3CCCCC3)co2)c1 | 2000 nM | 470 nM | –
